Experimental data from US20160355530A1, “HEPATITIS C INHIBITORS AND USES THEREOF” (AbbVie Inc., priority 2010, published 2016).
Read-outs that look alike come from different tables or passages of the source.

Tests used:
[1] = molecular target: T1, HCV NS5B polymerase 1a-H77 (Hepatitis C virus genotype 1a, UniProt P27958); assay: biochemical; set-up: species or system HCV genotype 1a; settings: enzyme, strain 1a H77; read-out: HCV Polymerase Strain 1a H77 IC50
T1 construct: six-histidine tag; made in house; host or cells: E. coli
In short: (§1)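 Incorporation of [3H]UTP (0.284 μM), alongside 20 μM each CTP and ATP, into RNA copied from a 5 nM 2.1 kb genotype 1b negative-strand template was measured after 3 h at 30° C using purified His-tagged NS5B truncated at residue 570. Product was spermine-precipitated, filtered and scintillation-counted; nonlinear regression gave IC50.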

[2] = molecular target: T2, HCV NS5B polymerase 1a-H77-C316Y (Hepatitis C virus genotype 1a, UniProt P27958, C2736Y); assay: biochemical; set-up: species or system HCV genotype 1a
T2 construct: six-histidine tag; made in house; host or cells: E. coli
In short: as §1

[3] = test system: HCV NS5B polymerase 1a-H77-C316Y; assay: biochemical; set-up: species or system HCV genotype 1a; settings: ratio of enzyme IC50s, 1a H77-C316Y / 1a H77
In short: as §1

[4] = molecular target: T3, HCV NS5B polymerase 1b BK strain (Hepatitis C virus genotype 1b, UniProt P26663); assay: HCV NS5B polymerase enzymatic inhibition assay, strain 1b BK; format: biochemical; settings: enzyme, strain 1b BK; read-out: HCV Polymerase Strain 1b BK IC50
T3 construct: six-histidine tag; made in house; host or cells: E. coli
In short: as §1

[5] = test system: HCV 1a-H77 subgenomic replicon; assay: microbe, parasite or virus in culture; format: cell-based, HCV genotype 1a; settings: Hepatitis C virus, stable replicon
[6] = test system: HCV 1b-BB7 subgenomic replicon; assay: microbe, parasite or virus in culture; format: cell-based, HCV genotype 1b; settings: Hepatitis C virus, stable replicon
[7] = test system: chimeric replicon with 2a-J6CF-derived NS5B; assay: microbe, parasite or virus in culture; format: cell-based, HCV genotype 2a; settings: Hepatitis C virus, read-out: 2a chimera 5% FBS EC50
[8] = test system: chimeric replicon with genotype 2b NS5B; assay: microbe, parasite or virus in culture; format: cell-based, HCV genotype 2b; settings: Hepatitis C virus, read-out: 2b chimera 5% FBS EC50
[9] = test system: chimeric replicon with genotype 3a NS5B; assay: microbe, parasite or virus in culture; format: cell-based, HCV genotype 3a; settings: Hepatitis C virus, read-out: 3a chimera 5% FBS EC50
[10] = test system: chimeric replicon with genotype 4a NS5B; assay: microbe, parasite or virus in culture; format: cell-based, HCV genotype 4a; settings: Hepatitis C virus, read-out: 4a chimera 5% FBS EC50
[11] = test system: HCV 1a-H77 transient subgenomic replicon in Huh-7 derived cell line; assay: microbe, parasite or virus in culture; format: cell-based, HCV genotype 1a; settings: Hepatitis C virus, Huh-7; transient replicon, 5% FBS; read-out: Transient Replicon 1a H77 5% FBS EC50
In short: (§2)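 Transient format: T7-transcribed replicon RNA lacking Neo, electroporated into Huh-7-derived cells (5×10^3/well), input RNA checked by luciferase at 4 h. Three-fold compound dilution series, 0.5% DMSO, 4 days at 37° C; EC50 from luciferase signal in lysed cells.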

[12] = test system: HCV 1a-H77-C316Y transient subgenomic replicon in Huh-7 derived cell line; assay: microbe, parasite or virus in culture; format: cell-based, HCV genotype 1a; settings: for EC50: Hepatitis C virus, Huh-7, read-out: Transient Replicon 1a H77-C316Y 5% FBS EC50; for Transient Replicon Fold Resistance C316Y/1a: ratio of transient replicon EC50s, C316Y / 1a H77
In short: as §2

[13] = 5% FBS, absence of human plasma, read-out: Stable Replicon 1a H77 5% FBS EC50
[14] = strain 1a H77, 5% FBS + 40% human plasma, read-out: 1a H77 5% FBS + 40% Human Plasma EC50
[15] = strain 1a H77, 5% FBS, no human plasma, read-out: 1a H77 5% FBS EC50
[16] = strain 1a H77, 5% FBS, read-out: 1a H77 5% FBS EC50
[17] = strain 1b BB7, 5% FBS + 40% human plasma, read-out: 1b BB7 5% FBS + 40% Human Plasma EC50
[18] = strain 1b BB7, 5% FBS, no human plasma, read-out: 1b BB7 5% FBS EC50
[19] = strain 1b BB7, 5% FBS, read-out: 1b BB7 5% FBS EC50

T3 sequence (P26663 2420-2989): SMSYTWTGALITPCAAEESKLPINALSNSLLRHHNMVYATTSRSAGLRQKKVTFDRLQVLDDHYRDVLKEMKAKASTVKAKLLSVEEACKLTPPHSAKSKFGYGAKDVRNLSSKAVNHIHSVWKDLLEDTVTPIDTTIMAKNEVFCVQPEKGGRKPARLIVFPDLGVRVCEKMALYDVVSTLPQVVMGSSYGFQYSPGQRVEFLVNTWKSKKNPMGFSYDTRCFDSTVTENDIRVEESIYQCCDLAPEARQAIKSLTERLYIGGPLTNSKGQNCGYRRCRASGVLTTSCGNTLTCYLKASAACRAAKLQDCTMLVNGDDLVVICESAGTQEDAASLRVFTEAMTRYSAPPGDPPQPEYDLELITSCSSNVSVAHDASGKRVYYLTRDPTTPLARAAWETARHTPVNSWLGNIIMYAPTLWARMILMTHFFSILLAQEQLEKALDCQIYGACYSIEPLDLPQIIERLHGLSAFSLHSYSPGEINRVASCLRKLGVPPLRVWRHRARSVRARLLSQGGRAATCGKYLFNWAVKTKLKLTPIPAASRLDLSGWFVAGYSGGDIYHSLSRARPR
T2 sequence (P27958 2421-2990 C2736Y): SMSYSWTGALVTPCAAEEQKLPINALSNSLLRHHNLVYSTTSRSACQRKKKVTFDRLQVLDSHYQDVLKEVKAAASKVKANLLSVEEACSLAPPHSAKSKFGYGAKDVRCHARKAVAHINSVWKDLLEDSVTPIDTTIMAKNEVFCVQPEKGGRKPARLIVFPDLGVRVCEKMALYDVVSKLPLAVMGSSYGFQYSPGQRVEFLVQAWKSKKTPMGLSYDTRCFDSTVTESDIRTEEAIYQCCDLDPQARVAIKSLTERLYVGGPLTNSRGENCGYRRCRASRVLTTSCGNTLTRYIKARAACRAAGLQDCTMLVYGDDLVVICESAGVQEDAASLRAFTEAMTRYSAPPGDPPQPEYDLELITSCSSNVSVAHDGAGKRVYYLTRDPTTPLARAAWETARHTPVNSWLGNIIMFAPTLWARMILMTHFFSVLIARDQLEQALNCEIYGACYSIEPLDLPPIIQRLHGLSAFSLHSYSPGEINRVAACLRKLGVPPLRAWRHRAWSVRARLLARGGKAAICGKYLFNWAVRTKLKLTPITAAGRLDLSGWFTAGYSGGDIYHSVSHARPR
T1 sequence (P27958 2421-2990): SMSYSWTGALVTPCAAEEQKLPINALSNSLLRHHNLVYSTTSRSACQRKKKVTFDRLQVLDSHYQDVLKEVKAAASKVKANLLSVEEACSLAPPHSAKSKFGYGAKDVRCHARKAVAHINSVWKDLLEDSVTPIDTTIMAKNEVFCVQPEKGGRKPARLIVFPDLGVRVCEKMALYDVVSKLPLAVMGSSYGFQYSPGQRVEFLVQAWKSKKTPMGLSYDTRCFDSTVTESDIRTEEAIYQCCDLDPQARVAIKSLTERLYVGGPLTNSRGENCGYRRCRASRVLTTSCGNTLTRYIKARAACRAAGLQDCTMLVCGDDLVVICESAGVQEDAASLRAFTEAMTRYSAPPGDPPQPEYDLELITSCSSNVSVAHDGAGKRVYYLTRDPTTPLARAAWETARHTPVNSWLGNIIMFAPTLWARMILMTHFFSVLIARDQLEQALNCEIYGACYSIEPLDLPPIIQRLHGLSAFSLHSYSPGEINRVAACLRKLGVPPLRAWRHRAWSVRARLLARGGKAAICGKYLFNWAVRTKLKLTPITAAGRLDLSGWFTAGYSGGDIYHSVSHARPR

| SMILES | IC50 [1] [nM] | IC50 [2] [nM] | C316Y/1a Fold Resistance [3] [fold] | IC50 [4] [nM] | EC50 [5, 13] [nM] | EC50 [5, 14] [nM] | EC50 [5, 15] [nM] | EC50 [5, 16] [nM] | EC50 [6, 17] [nM] | EC50 [6, 18] [nM] | EC50 [6, 19] [nM] | EC50 [7] [nM] | EC50 [8] [nM] | EC50 [9] [nM] | EC50 [10] [nM] | EC50 [11] [nM] | EC50 [12] [nM] | Transient Replicon Fold Resistance C316Y/1a [12] [fold] |
| --- | --- | --- | --- | --- | --- | --- | --- | --- | --- | --- | --- | --- | --- | --- | --- | --- | --- | --- |
| CS(=O)(=O)N(CCCC(N)=O)c1cc2oc(-c3ccc(F)cc3)c(-c3ncc[nH]3)c2cc1C1CC1 [Example 108, 4-{[5-cyclopropyl-2-(4-fluorophenyl)-3-(1H-imidazol-2-yl)-1-benzofuran-6-yl](methylsulfonyl)amino}butanamide] | 3.5 | 60 | 17 | 28 | 15.3 | 49 | 15.3 | 15.3 | 57 | 10.1 | 10.1 | 156 | 187 | 11 | 104 | 7.9 | 203 | 26 |
| CS(=O)(=O)N(CCCN1CCS(=O)(=O)CC1)c1cc2oc(-c3ccc(F)cc3)c(C3=NOCCN3)c2cc1C1CC1 [Example 114, N-[5-cyclopropyl-3-(5,6-dihydro-4H-1,2,4-oxadiazin-3-yl)-2-(4-fluorophenyl)-1-benzofuran-6-yl]-N-[3-(1,1-dioxidothiomorpholin-4-yl)propyl]methanesulfonamide] | 7 | 70 | 10 | 43 | 27.1 | 406 | 27.1 | 27.1 | 377 | 33 | 33 | 299 | 331 | 56.2 | 307 | 21.8 | 238 | 11 |
| CC(C)(C#N)CCCCN(c1cc2oc(-c3ccc(F)cc3)c(C3=NOCCN3)c2cc1C1CC1)S(C)(=O)=O [Example 115, N-(5-cyano-5-methylhexyl)-N-[5-cyclopropyl-3-(5,6-dihydro-4H-1,2,4-oxadiazin-3-yl)-2-(4-fluorophenyl)-1-benzofuran-6-yl]methanesulfonamide] | 3.9 | 37 | 10 | 33 | 9.5 | 38 | 9.5 | 9.5 | 127 | 14 | 14 | 167 | 146 | 30 | 124 | 7.3 | 90.7 | 12 |
| CCOC(=O)CCCN(c1cc2oc(-c3ccc(F)cc3)c(C3=NOCCN3)c2cc1C1CC1)S(C)(=O)=O [Example 121, ethyl 4-{[5-cyclopropyl-3-(5,6-dihydro-4H-1,2,4-oxadiazin-3-yl)-2-(4-fluorophenyl)-1-benzofuran-6-yl](methylsulfonyl)amino}butanoate] | 3.5 | 40 | 12 | 55 | 38.7 | 311 | 38.7 | 38.7 | 388 | 68 | 68 | 1000 | 1000 | 121 | 988 | 28 | 287 | 10 |
| CS(=O)(=O)CCCCN(c1cc2oc(-c3ccc(F)cc3)c(C3=NOCCN3)c2cc1C1CC1)S(C)(=O)=O [Example 122, N-[5-cyclopropyl-3-(5,6-dihydro-4H-1,2,4-oxadiazin-3-yl)-2-(4-fluorophenyl)-1-benzofuran-6-yl]-N-[4-(methylsulfonyl)butyl]methanesulfonamide] | 6.9 | 46 | 7 | 25 | 8.4 | 50 | 8.4 | 8.4 | 81 | 11 | 11 | 130 | 127 | 32 | 83.9 | 6.7 | 62.3 | 9 |
| CS(=O)(=O)N(CCC1CCS(=O)(=O)C1)c1cc2oc(-c3ccc(F)cc3)c(C3=NOCCN3)c2cc1C1CC1 (stereo not drawn) [Example 123] | 9.5 | 76 | 8 | 14 | 10.9 | 108 | 10.9 | 10.9 | 211 | 18 | 18 | 162 | 105 | 36.4 | 58.1 | 10.7 | 78.9 | 7 |
| CS(=O)(=O)N(CCCS(N)(=O)=O)c1cc2oc(-c3ccc(F)cc3)c(C3=NOCCN3)c2cc1C1CC1 [Example 124, 3-{[5-cyclopropyl-3-(5,6-dihydro-4H-1,2,4-oxadiazin-3-yl)-2-(4-fluorophenyl)-1-benzofuran-6-yl](methylsulfonyl)amino}propane-1-sulfonamide] | 4.5 | 37 | 8 | 29 | 44.3 | 501 | 44.3 | 44.3 | 984 | 44 | 44 | 1000 | 1000 | 139 | 962 | 33.4 | 276 | 8 |
| CS(=O)(=O)N(CCCN1CCOCC1)c1cc2oc(-c3ccc(F)cc3)c(C3=NOCCN3)c2cc1C1CC1 [Example 126, N-[5-cyclopropyl-3-(5,6-dihydro-4H-1,2,4-oxadiazin-3-yl)-2-(4-fluorophenyl)-1-benzofuran-6-yl]-N-[3-(morpholin-4-yl)propyl]methanesulfonamide] | 21.5 | 91 | 4 | 111 | 25.3 | 258 | 25.3 | 25.3 | 379 | 30 | 30 | 350 | 453 | 70 | 360 | 33.6 | 260 | 8 |
| CS(=O)(=O)N(CCCO)c1cc2oc(-c3ccc(F)cc3)c(C3=NOCCN3)c2cc1C1CC1 [Example 137, N-[5-cyclopropyl-3-(5,6-dihydro-4H-1,2,4-oxadiazin-3-yl)-2-(4-fluorophenyl)-1-benzofuran-6-yl]-N-(3-hydroxypropyl)methanesulfonamide] | 4.2 | 39 | 9 | 79 | 15 | 59 | 15 | 15 | 113 | 17 | 17 | 182 | 214 | 33 | 172 | 10.1 | 107 | 11 |
